This note sets out measurements from ChEMBL document CHEMBL5331050, “Spiro[benzoxazine-piperidin]-one derivatives as chitin synthase inhibitors and antifungal agents: Design, synthesis and biological evaluation” (Eur J Med Chem, 2022).

Structures are written as SMILES. In brackets after ≈: the same amount, converted by molar mass.

The test system of test [1] is Cryptococcus neoformans. Kind of test: Antifungal activity against Cryptococcus neoformans ATCC 208821 assessed as fungal growth inhibition incubated for 24 hrs by CLSI protocol based broth microdilution method. Format: functional. For orientation: Dilution methods test growth across graded concentrations, often in twofold steps.
In test [2] the test system is Aspergillus flavus. Briefly: Antifungal activity against Aspergillus flavus ATCC 16870 assessed as fungal growth inhibition incubated for 24 hrs by CLSI protocol based broth microdilution method. Type of test: functional.
A further test relates to Candida tropicalis. Briefly: Inhibition of Candida tropicalis ATCC 750 chitin synthase using UDP-GlcNAc as substrate at 300 ug/ml incubated for 1 hrs by absorbance based assay relative to control. The conditions noted are these: dose 300.0 µg/ml.
For test [3], the system named is Aspergillus fumigatus. Briefly: Antifungal activity against Aspergillus fumigatus GIMCC 3.19 assessed as fungal growth inhibition incubated for 24 hrs by CLSI protocol based broth microdilution method. Format: functional.
For test [4], the system named is Candida albicans. Briefly: Antifungal activity against Candida albicans ATCC 76615 assessed as fungal growth inhibition incubated for 24 hrs by CLSI protocol based broth microdilution method. Type of test: functional.
Test [5] can be described thus: Inhibition of Candida tropicalis ATCC 750 chitin synthase using UDP-GlcNAc as substrate incubated for 1 hrs by absorbance based assay.
Test [6] relates to Candida albicans. Briefly: Synergistic antifungal activity against Candida albicans ATCC 76615 assessed as fractional inhibitory concentration index incubated for 24 hrs in the presence of fluconazole by broth dilution based checkerboard method. Format: functional.
Test [7] relates to Candida albicans. Kind of test: Synergistic antifungal activity against Candida albicans ATCC 76615 assessed as fungal growth inhibition incubated for 24 hrs in the presence of fluconazole by broth dilution based checkerboard method. Type of test: functional.
Test [8] has as its system Aspergillus flavus. Kind of test: Synergistic antifungal activity against Aspergillus flavus ATCC 16870 assessed as fungal growth inhibition incubated for 24 hrs in the presence of fluconazole by broth dilution based checkerboard method. Type of test: functional.
For test [9], the system named is Aspergillus fumigatus. Briefly: Synergistic antifungal activity against Aspergillus fumigatus GIMCC 3.19 assessed as fungal growth inhibition incubated for 24 hrs in the presence of fluconazole by broth dilution based checkerboard method. Format: functional.
The subject of test [10] is Aspergillus flavus. Briefly: Synergistic antifungal activity against Aspergillus flavus ATCC 16870 assessed as fractional inhibitory concentration index incubated for 24 hrs in the presence of fluconazole by broth dilution based checkerboard method. Type of test: functional.
The test system of test [11] is Aspergillus fumigatus. Briefly: Synergistic antifungal activity against Aspergillus fumigatus GIMCC 3.19 assessed as fractional inhibitory concentration index incubated for 24 hrs in the presence of fluconazole by broth dilution based checkerboard method. Type of test: functional.
Test [12] relates to Cryptococcus neoformans. Kind of test: Synergistic antifungal activity against Cryptococcus neoformans ATCC 208821 assessed as fractional inhibitory concentration index incubated for 24 hrs in the presence of fluconazole by broth dilution based checkerboard method. Type of test: functional.
The test system of test [13] is Cryptococcus neoformans. Briefly: Synergistic antifungal activity against Cryptococcus neoformans ATCC 208821 assessed as fungal growth inhibition incubated for 24 hrs in the presence of fluconazole by broth dilution based checkerboard method. Type of test: functional.

Take `COc1ccc2c(c1)C1(CCN(C(=O)CC(=O)Nc3ccc(C)cc3)CC1)OC(=O)N2`: the minimum inhibitory concentration (MIC) in the test with Cryptococcus neoformans [1] is greater than 512 µg/mL; with Aspergillus flavus [2], greater than 512 µg/mL; in the test with Aspergillus fumigatus [3], greater than 512 µg/mL; in the test on Candida albicans [4], 512 µg/mL (≈ 1210 µM). The molecule further gave an inhibition with Candida tropicalis of 13%.

For the molecule `COc1ccc(NC(=O)CCC(=O)N2CCC3(CC2)OC(=O)Nc2ccc(OC)cc23)cc1`, the MIC is 256 µg/mL (≈ 565 µM) in the test with Cryptococcus neoformans [1], greater than 512 µg/mL in the test on Aspergillus flavus [2], 256 µg/mL (≈ 565 µM) in the test with Aspergillus fumigatus [3] and greater than 512 µg/mL in the test on Candida albicans [4]. The molecule also had an inhibition in the test with Candida tropicalis of 17%.

For the molecule `COc1ccc(NC(=O)CC(=O)N2CCC3(CC2)OC(=O)Nc2ccc(OC)cc23)cc1`, the MIC in the test with Cryptococcus neoformans [1] was greater than 512 µg/mL; in the test on Aspergillus flavus [2], greater than 512 µg/mL; in the test with Aspergillus fumigatus [3] it was 256 µg/mL (≈ 583 µM); in the test on Candida albicans [4], 512 µg/mL (≈ 1170 µM). Further, in the test on Candida tropicalis, the inhibition came to 16%.

As to `COc1ccc2c(c1)C1(CCN(C(=O)C(O)C(O)C(=O)Nc3ccc(Br)cc3)CC1)OC(=O)N2` (stereo not given), the MIC was 512 µg/mL (≈ 958 µM) in the test with Cryptococcus neoformans [1], 512 µg/mL (≈ 958 µM) with Aspergillus flavus [2], greater than 512 µg/mL in the test on Aspergillus fumigatus [3] and greater than 512 µg/mL with Candida albicans [4]. The inhibition with Candida tropicalis was 43%.

Turning to `COc1ccc2c(c1)C1(CCN(C(=O)/C=C/C(=O)Nc3cccc4ccccc34)CC1)OC(=O)N2`, the MIC is 256 µg/mL (≈ 543 µM) in the test with Cryptococcus neoformans [1], greater than 512 µg/mL in the test with Aspergillus flavus [2], greater than 512 µg/mL in the test on Aspergillus fumigatus [3] and 256 µg/mL (≈ 543 µM) with Candida albicans [4]. The same molecule had an inhibition in the test with Candida tropicalis of 46%.

As to `COc1ccc2c(c1)C1(CCN(C(=O)/C=C/C(=O)Nc3ccccc3OC)CC1)OC(=O)N2`, the MIC is 256 µg/mL (≈ 567 µM) in the test with Cryptococcus neoformans [1], 128 µg/mL (≈ 284 µM) in the test with Aspergillus flavus [2], 128 µg/mL (≈ 284 µM) in the test with Aspergillus fumigatus [3] and 64 µg/mL (≈ 142 µM) with Candida albicans [4]. Also, half-maximal inhibition in test [5] (IC50) was put at 330 µM. In the test on Candida tropicalis, this molecule yielded an inhibition of 60%.

As to `COc1ccc(NC(=O)C(O)C(O)C(=O)N2CCC3(CC2)OC(=O)Nc2ccc(OC)cc23)cc1` (stereo not given), the MIC in the test with Cryptococcus neoformans [1] was greater than 512 µg/mL; in the test on Aspergillus flavus [2], 512 µg/mL (≈ 1050 µM); with Aspergillus fumigatus [3], 256 µg/mL (≈ 527 µM); in the test on Candida albicans [4], greater than 512 µg/mL. The molecule also came in with an inhibition in the test with Candida tropicalis of 52%.

In the case of `COc1ccc(NC(=O)/C=C/C(=O)N2CCC3(CC2)OC(=O)Nc2ccc(OC)cc23)cc1`, the minimum inhibitory concentration (MIC) stood at 256 µg/mL (≈ 567 µM) in the test with Cryptococcus neoformans [1]; 64 µg/mL (≈ 142 µM) in the test on Aspergillus flavus [2]; 6.67 µg/mL in the test with Candida albicans [7]; 128 µg/mL in the test on Aspergillus flavus [8]; 26 µg/mL with Aspergillus fumigatus [9]; 128 µg/mL (≈ 284 µM) in the test with Aspergillus fumigatus [3]. In addition, the MIC with Candida albicans [4] was found to be 64 µg/mL (≈ 142 µM); with Cryptococcus neoformans [13], 32 µg/mL. The “fractional inhibitory concentration index (FICI)” value with Candida albicans [6] is 1.1; in the test with Aspergillus flavus [10] it was 3; in the test with Aspergillus fumigatus [11], 1.125; in the test with Cryptococcus neoformans [12], 0.625. Also, the IC50 in [5] turned out to be 210 µM. The same molecule yielded an inhibition in the test on Candida tropicalis of 82%.

`COc1ccc2c(c1)C1(CCN(C(=O)C(O)C(O)C(=O)Nc3ccc(C)cc3)CC1)OC(=O)N2` (stereo not given): the MIC in the test with Cryptococcus neoformans [1] is greater than 512 µg/mL; in the test with Aspergillus flavus [2], greater than 512 µg/mL; with Aspergillus fumigatus [3], 256 µg/mL (≈ 545 µM); in the test on Candida albicans [4] it was greater than 512 µg/mL. This molecule also displayed an inhibition in the test on Candida tropicalis of 43%.

In the case of `COc1ccc2c(c1)C1(CCN(C(=O)/C=C/C(=O)Nc3ccccc3C)CC1)OC(=O)N2`, the MIC with Cryptococcus neoformans [1] was greater than 512 µg/mL; with Aspergillus flavus [2] it was 512 µg/mL (≈ 1180 µM); in the test with Aspergillus fumigatus [3], greater than 512 µg/mL; with Candida albicans [4], 256 µg/mL (≈ 588 µM). In the test on Candida tropicalis, this molecule registered an inhibition of 14%.

`COc1ccc2c(c1)C1(CCN(C(=O)/C=C/C(=O)Nc3cc(C)cc(C)c3)CC1)OC(=O)N2`: the MIC was greater than 512 µg/mL with Cryptococcus neoformans [1], 512 µg/mL (≈ 1140 µM) with Aspergillus flavus [2], greater than 512 µg/mL in the test with Aspergillus fumigatus [3] and 512 µg/mL (≈ 1140 µM) in the test on Candida albicans [4]. This molecule gave an inhibition with Candida tropicalis of 16%.

On to `COc1ccc2c(c1)C1(CCN(C(=O)CC(=O)Nc3ccc(Br)cc3)CC1)OC(=O)N2`, for which the MIC was found to be 256 µg/mL (≈ 524 µM) in the test on Cryptococcus neoformans [1], 256 µg/mL (≈ 524 µM) in the test on Aspergillus flavus [2], 256 µg/mL (≈ 524 µM) in the test with Aspergillus fumigatus [3] and 512 µg/mL (≈ 1050 µM) in the test on Candida albicans [4]. This molecule yielded an inhibition in the test on Candida tropicalis of 18%.

With `COc1ccc2c(c1)C1(CCN(C(=O)/C=C/C(=O)Nc3ccc(C(F)(F)F)cc3C(F)(F)F)CC1)OC(=O)N2`, the MIC is greater than 512 µg/mL with Cryptococcus neoformans [1], greater than 512 µg/mL in the test on Aspergillus flavus [2], greater than 512 µg/mL with Aspergillus fumigatus [3] and 256 µg/mL (≈ 459 µM) in the test on Candida albicans [4]. Further, in the test with Candida tropicalis, the inhibition is 30%.

Take `COc1ccc2c(c1)C1(CCN(C(=O)CCC(=O)Nc3ccc(C)cc3)CC1)OC(=O)N2`: the MIC in the test on Cryptococcus neoformans [1] was 256 µg/mL (≈ 585 µM); with Aspergillus flavus [2] it was 256 µg/mL (≈ 585 µM); in the test on Aspergillus fumigatus [3], greater than 512 µg/mL; with Candida albicans [4], 128 µg/mL (≈ 293 µM). In addition, the inhibition in the test with Candida tropicalis came to 11%.

Usually MIC stands for the lowest concentration that inhibits growth of the organism. The term inhibition denotes the change of the read-out against control, counted positive when it falls. High values mean a response far below the control, low ones a response near the control. The term IC50 denotes the concentration needed to halve the response being measured.
